Results reported in patent US10597735B2, “Antibacterial and plasmid elimination agents” (priority 2006, dated 2020).
Values after ≈ are worked out from the molar mass of the structure shown. Where a SMILES comes first, the peptide text is derived from it.

How the values were obtained:
ClpXP [1] = target: T1, ClpXP (Escherichia coli, UniProt P0A6G7+P0A6H1); assay: ClpXP degradation of GFP-tag in the absence of SspB (Examples 1-2); type: biochemical, E. coli; details: no SspB
Description: (§1) ClpXP Proteolysis: PD buffer contained 25 mM HEPES-KOH (pH 7.6), 5 mM KCl, 5 mM MgCl2, 0.032% NP-40, 5 mM ATP, and 10% glycerol. The ATP regenerating system consisted of 8 mM creatine phosphate and 0.16 mg/ml creatine kinase. Inhibition experiments were performed using a Hitachi F-2000 Fluorescence Spectrophotometer. The rate of GFP-ssrA degradation was monitored at 30° C. for 5 minutes by the loss of fluorescence (excitation 488 nm; emission 507 nm). Competition experiments with increasing concentrations of peptide were performed using GFP-ssrA (0.2 μM), ClpX6 (0.3 ArM), ClpP14 (0.8 μM), and SspB2 (0.3 μM) in PD buffer plus 200 mM KCl and ATP regenerating system. Curve fitting for the competitive inhibition assays were performed using the Scientist program (MicroMath Scientific Software, Inc.).
A priori, there are several steps in the degradation pathway that could be inhibited by the selected cyclic peptides: binding of the substrate-SspB complex to ClpXP, ATPase activity of ClpX, and hydrolysis of the peptide bond by ClpP. Molecules that block the binding of substrate to SspB should not be inhibitors of proteolysis by ClpXP, because ClpXP will degrade tmRNA-tagged substrates in the absence of SspB. To determine if the inhibitors act through SspB, the kinetic assays were repeated in the absence of this proteolytic adaptor.

ClpXP [2] = target: T1, ClpXP; assay: Proteolysis of λO protein by ClpXP, SDS-PAGE (Example 3); type: biochemical, E. coli
Description: Proteolysis of λO protein was assayed by incubating 1 μM λO with 0.1 μM ClpX6, 0.3 μM ClpP14 in buffer R at 30° C. At various times the reaction was sampled, the reaction was terminated by boiling in SDS-PAGE loading buffer, and analyzed using SDS-polyacrylamide gels stained with Coomassie blue. The intensity of the band corresponding to intact λO protein was measured using ImageQuant software (Molecular Dynamics), and plots of the intensity versus time were fit with single exponential functions to determine the half-life of λO protein.
To determine if IXP1 inhibits proteolysis of ClpXP substrates recognized by an epitope distinct from the tmRNA tag, λO protein was used as an assay substrate. […] Degradation of λO was assayed in the presence and absence of IXP1 by following the loss of intact λO protein on SDS-polyacrylamide gels (FIG. 7).

C. crescentus = type: cell-based, Caulobacter crescentus; details: C. crescentus, 99.9% colony reduction; listed as cyclic XB
Description: Antibacterial activity assays: To measure the effects of peptides on bacterial growth, cultures of C. crescentus were diluted to OD600=0.001, peptide was added at various concentrations, the cultures were incubated at 30° C. for 14 h, and the MIC was determined as the lowest concentration of peptide that prevented growth. To determine the MBC, each culture was diluted 1:100 in PYE and 10 μl of the diluted culture was spread onto PYE agar plates, incubated at 30° C. overnight, and the number of colonies on each plate was counted. The MBC was assigned as the concentration of peptide that reduced the number of colonies by 99.9% compared to cultures with no inhibitor.

ClpXP [3] = target: T1, ClpXP; assay: ClpXP degradation of GFP-tag in the presence of SspB, continuous fluorimetric assay (Examples 1-2); type: biochemical, E. coli; details: SspB present
Description: as §1
Characterization of ClpXP inhibitors in vitro: Two of the selected cyclic peptides were synthesized in vitro to examine their effects on enzymatic assays. Peptides with the sequence SGWRVQGPL (SEQ ID NO: 1) and SGSKGVLPL (SEQ ID NO: 2) were chemically synthesized in the linear form, circularized, and purified by HPLC. The effects of these peptides on the activity of purified ClpXP were determined in vitro using a continuous fluorimetric assay. GFP-tag, SspB, ClpX and ClpP were each purified from over-expressing strains of E. coli, and degradation of GFP-tag was monitored by loss of fluorescence. In reactions containing all components, GFP-tag was degraded with kinetic parameters kcat=1.79±0.08 min−1, KM=0.74±0.04, similar to the previously published values of 1.44 min^−1 and 0.96 μM. […] For both cyclic peptides, inhibition of ClpXP was reversible, as no inhibition was observed when ClpXP was incubated with peptide at concentrations above the Kr, and dialyzed to remove unbound peptide before addition of enzyme to the reaction. The linear versions of SGSKGVLPL (SEQ ID NO: 2) and SGWRVQGPL (SEQ ID NO: 1) had Kb, values >1 mM (Table 4), so the cyclic architecture is likely to be important for inhibition.

ClpXP [4] = target: T1, ClpXP; assay: biochemical; type: biochemical, E. coli; details: SspB present
Description: In vitro proteolysis assays: Proteolysis of GFP-tag was performed using a continuous fluorescence assay essentially as previously described (Levchenko et al. 2000, Science 289: 2354-2356). Briefly, loss of GFP fluorescence was monitored at 507 nm after excitation at 395 nm at 30° C. using a Hitachi F-2000 Fluorescence Spectrophotometer in buffer R (25 mM HEPES-KOH (pH 7.6), 5 mM MgCl2, 50 mM KCl, 0.032% NP-40, 10% glycerol, and an ATP regeneration system containing 4 mM ATP (pH 7), 16 mM creatine phosphate and 0.32 mg/ml creatine kinase). Typically, reactions contained […], 0.3 μM ClpP14, and equimolar concentrations (0.2 μM-2.0 μM) GFP-tag and SspB. Degradation of GFP-tag protein was confirmed by SDS-PAGE assays. To examine inhibition of GFP-tag proteolysis, peptides were incubated with ClpXP in reaction buffer for 5 min prior to the addition of GFP-tag. Plots of fluorescence versus time were fit with a single exponential function to determine the initial rate of proteolysis. Kinetic parameters were estimated using Eadie-Hofstee plots.
Proteolysis of GFP-tag in the presence of ClpXP and SspB was monitored by loss of GFP fluorescence in a continuous fluorometric assay. In the absence of cyclic peptide, GFP-tag was degraded with kinetic parameters kcat=[…], KM=0.74±0.04 μM. […] Likewise, no degradation was observed when ClpX or ClpP were omitted from the reaction.

T1 sequence (P0A6G7 15-207): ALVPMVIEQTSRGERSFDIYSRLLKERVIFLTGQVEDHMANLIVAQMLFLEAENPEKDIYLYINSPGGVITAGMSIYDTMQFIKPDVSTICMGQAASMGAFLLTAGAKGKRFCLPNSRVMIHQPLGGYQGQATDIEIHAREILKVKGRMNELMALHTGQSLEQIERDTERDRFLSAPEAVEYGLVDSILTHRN
T1 sequence (P0A6H1 whole entry): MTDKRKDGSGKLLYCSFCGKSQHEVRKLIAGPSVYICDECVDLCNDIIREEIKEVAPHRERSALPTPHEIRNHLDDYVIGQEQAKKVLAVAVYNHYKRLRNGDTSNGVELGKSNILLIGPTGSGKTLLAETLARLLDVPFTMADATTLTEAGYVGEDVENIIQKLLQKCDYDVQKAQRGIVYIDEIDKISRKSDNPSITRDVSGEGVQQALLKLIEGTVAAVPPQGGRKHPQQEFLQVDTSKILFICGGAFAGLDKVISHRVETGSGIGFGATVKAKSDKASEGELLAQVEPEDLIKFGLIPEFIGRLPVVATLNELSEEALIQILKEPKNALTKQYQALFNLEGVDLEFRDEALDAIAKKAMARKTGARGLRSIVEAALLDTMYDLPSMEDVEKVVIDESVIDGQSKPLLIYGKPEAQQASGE

With `CC(C)C[C@@H]1NC(=O)[C@H](C)NC(=O)[C@@H]2CCCN2C(=O)[C@H](CCCNC(=N)N)NC(=O)CNC(=O)CNC(=O)[C@H](CCCNC(=N)N)NC(=O)[C@H](CS)NC(=O)[C@H](CCCCN)NC(=O)[C@H](C(C)C)NC(=O)[C@H](C(C)C)NC(=O)[C@H](CCCNC(=N)N)NC1=O` [cycXB, CRGGRPALRVVK] (HELM PEPTIDE1{A.L.R.V.V.K.C.R.G.G.R.P}$PEPTIDE1,PEPTIDE1,1:R1-12:R2$$$V2.0) the “inhibition of GFP-tag degradation by ClpXP in the absence of SspB” value (ClpXP [1]) was “inhibited”, the “inhibition of λO degradation by ClpXP” value (ClpXP [2]) was “did not inhibit” and the MBC (C. crescentus) was 40 ± 6 µM (≈ 51.7 µg/mL). For the same compound, the “KI fold lower than the linear XB peptide” value (ClpXP [3]) was 7 fold, the “KI fold lower than the selected cyclic peptide inhibitors” value (ClpXP [3]) was 2-3 fold and the “KI fold lower than the linear XB peptide” value (ClpXP [4]) was 7 fold.
